According to patent US20260091026A1, “METHODS OF TREATING INFLAMMATORY DISEASES” (INTERLINE THERAPEUTICS, INC., priority 2023, published 2026):

Key:
[1] = molecular target: T1, RIPK2 (KD)/XIAP (BIR2) (Homo sapiens, UniProt O43353); test: RIPK2-XIAP binding competition PPI assay (TR-FRET); details: for Emax: 50 nM of GSK583 = -100% activity, read-out: PPI Amax; for IC50: GST-RIPK2 / His-XIAP (BIR2)-avi, 120 min at 23° C.
T1 construct: made in house; host or cells: baculovirus-infected Sf9 cells
Summary of the method: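 TR-FRET competition between GST-RIPK2 (aa 1-310, 1 nM) and His-XIAP BIR2-avi (aa 152-231, 25 nM), both Sf9-expressed, detected with anti-His-XL665 and anti-GST-Tb in Tris pH 7.5 buffer with MgCl2, DTT and vanadate. Incubation was 120 min at 23 °C; the 665/520 nm ratio was normalized to no inhibitor (0%) and 50 nM GSK583 (−100%).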

[2] = tested on: THP1-Dual cells, NF-κB pathway (SEAP); test: THP-1 Dual cell SEAP assay (L18-MDP stimulated); format: cell-based; details: Homo sapiens, 10 ng/mL L18-MDP, 20-24 h, SEAP readout, read-out: IFNγ THP1 IC50
Summary of the method: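 About 25,000 THP1-Dual cells per well were preincubated 30 min with serially diluted compound, then stimulated overnight (20-24 h, 37 °C) with 10 ng/mL L18-MDP (final). NF-κB-driven SEAP in supernatant was read with QUANTI-Blue at OD 620-655 nm after 2 h; % inhibition versus DMSO/L18-MDP wells was fitted by non-linear regression to give IC50.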

T1 sequence (O43353 1-310): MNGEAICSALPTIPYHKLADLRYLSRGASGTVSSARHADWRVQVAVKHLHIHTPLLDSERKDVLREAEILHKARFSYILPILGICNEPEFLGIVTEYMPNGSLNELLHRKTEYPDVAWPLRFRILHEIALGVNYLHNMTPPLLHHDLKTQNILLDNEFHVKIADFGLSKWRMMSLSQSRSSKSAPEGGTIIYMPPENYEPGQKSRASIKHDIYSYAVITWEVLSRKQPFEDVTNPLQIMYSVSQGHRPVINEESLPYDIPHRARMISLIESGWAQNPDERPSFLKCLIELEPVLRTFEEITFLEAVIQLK

| SMILES | Emax [1] [%] | IC50 [1] [nM] | IC50 [2] [nM] |
| --- | --- | --- | --- |
| COc1cc2ncc(-c3cc(C(=O)NCc4ncn(C)n4)n(C)n3)n2cc1S(=O)(=O)C(C)(C)C [Example 81, 3-(6-(tert-butylsulfonyl)-7-methoxyimidazo[1,2-a]pyridin-3-yl)-1-methyl-N-((1-methyl-1H-1,2,4-triazol-3-yl)methyl)-1H-pyrazole-5-carboxamide] | ≥ 80 | 100 to 1000 | > 2500 |
| COc1cc2ncc(-c3cc(C(=O)NCc4ncccc4C#N)n(C)n3)n2cc1S(=O)(=O)C(C)(C)C [Example 82, 3-(6-(tert-butylsulfonyl)-7-methoxyimidazo[1,2-a]pyridin-3-yl)-N-((3-cyanopyridin-2-yl)methyl)-1-methyl-1H-pyrazole-5-carboxamide] | ≥ 80 | 10 to 100 | 500 to 2500 |
| COc1cc2ncc(-c3cc(C(=O)NCc4ccccc4C#N)n(C)n3)n2cc1S(=O)(=O)C(C)(C)C [Example 83, 3-(6-(tert-butylsulfonyl)-7-methoxyimidazo[1,2-a]pyridin-3-yl)-N-(2-cyanobenzyl)-1-methyl-1H-pyrazole-5-carboxamide] | ≥ 80 | 100 to 1000 | > 2500 |
| COc1cc2ncc(-c3cc(C(=O)NCc4nccs4)n(C)n3)n2cc1S(=O)(=O)C(C)(C)C [Example 84, 3-(6-(tert-butylsulfonyl)-7-methoxyimidazo[1,2-a]pyridin-3-yl)-1-methyl-N-(thiazol-2-ylmethyl)-1H-pyrazole-5-carboxamide] | ≥ 80 | 10 to 100 | 500 to 2500 |
| COc1cc2ncc(-c3cc(C(=O)NCc4cscn4)n(C)n3)n2cc1S(=O)(=O)C(C)(C)C [Example 85, 3-(6-(tert-butylsulfonyl)-7-methoxyimidazo[1,2-a]pyridin-3-yl)-1-methyl-N-(thiazol-4-ylmethyl)-1H-pyrazole-5-carboxamide] | ≥ 80 | 10 to 100 | 500 to 2500 |
| COc1cc2ncc(-c3cc(C(=O)NCc4ccsn4)n(C)n3)n2cc1S(=O)(=O)C(C)(C)C [Example 86, 3-(6-(tert-butylsulfonyl)-7-methoxyimidazo[1,2-a]pyridin-3-yl)-N-(isothiazol-3-ylmethyl)-1-methyl-1H-pyrazole-5-carboxamide] | ≥ 80 | 10 to 100 | 100 to 500 |
| COc1cc2ncc(-c3cc(C(=O)NCc4cc(C)sn4)n(C)n3)n2cc1S(=O)(=O)C(C)(C)C [Example 87, 3-(6-(tert-butylsulfonyl)-7-methoxyimidazo[1,2-a]pyridin-3-yl)-1-methyl-N-((5-methylisothiazol-3-yl)methyl)-1H-pyrazole-5-carboxamide] | ≥ 80 | 10 to 100 | 500 to 2500 |
| COc1cc2ncc(-c3cc(C(=O)NCc4nc(C)cs4)n(C)n3)n2cc1S(=O)(=O)C(C)(C)C [Example 88, 3-(6-(tert-butylsulfonyl)-7-methoxyimidazo[1,2-a]pyridin-3-yl)-1-methyl-N-((4-methylthiazol-2-yl)methyl)-1H-pyrazole-5-carboxamide] | ≥ 80 | 100 to 1000 | 500 to 2500 |
| COc1cc2ncc(-c3cc(C(=O)NCc4ncc(C)s4)n(C)n3)n2cc1S(=O)(=O)C(C)(C)C [Example 89, 3-(6-(tert-butylsulfonyl)-7-methoxyimidazo[1,2-a]pyridin-3-yl)-1-methyl-N-((5-methylthiazol-2-yl)methyl)-1H-pyrazole-5-carboxamide] | ≥ 80 | 10 to 100 | 100 to 500 |
| COc1cc2ncc(-c3cc(C(=O)NCc4ncsn4)n(C)n3)n2cc1S(=O)(=O)C(C)(C)C [Example 90, N-((1,2,4-thiadiazol-3-yl)methyl)-3-(6-(tert-butylsulfonyl)-7-methoxyimidazo[1,2-a]pyridin-3-yl)-1-methyl-1H-pyrazole-5-carboxamide] | 55 to 80 | 10 to 100 | 500 to 2500 |
| COc1cc2ncc(-c3cc(C(=O)NCc4nsc(C)n4)n(C)n3)n2cc1S(=O)(=O)C(C)(C)C [Example 91, 3-(6-(tert-butylsulfonyl)-7-methoxyimidazo[1,2-a]pyridin-3-yl)-1-methyl-N-((5-methyl-1,2,4-thiadiazol-3-yl)methyl)-1H-pyrazole-5-carboxamide] | 55 to 80 | 100 to 1000 | > 2500 |
| COc1cc2ncc(-c3cc(C(=O)NCc4nc(C)c(C)s4)n(C)n3)n2cc1S(=O)(=O)C(C)(C)C [Example 92, 3-(6-(tert-butylsulfonyl)-7-methoxyimidazo[1,2-a]pyridin-3-yl)-N-((4,5-dimethylthiazol-2-yl)methyl)-1-methyl-1H-pyrazole-5-carboxamide] | ≥ 80 | 100 to 1000 | > 2500 |
| COc1cc2ncc(-c3cc(C(=O)N[C@H](C)c4nccs4)n(C)n3)n2cc1S(=O)(=O)C(C)(C)C [Example 93, (R)-3-(6-(tert-butylsulfonyl)-7-methoxyimidazo[1,2-a]pyridin-3-yl)-1-methyl-N-(1-(thiazol-2-yl)ethyl)-1H-pyrazole-5-carboxamide] | ≥ 80 | 10 to 100 | 100 to 500 |
| C[C@@H](NC(=O)c1cc(-c2cnc3cc(OCCO)c(S(=O)(=O)C(C)(C)C)cn23)nn1C)c1nccs1 [Example 94, (R)-3-(6-(tert-butylsulfonyl)-7-(2-hydroxyethoxy)imidazo[1,2-a]pyridin-3-yl)-1-methyl-N-(1-(thiazol-2-yl)ethyl)-1H-pyrazole-5-carboxamide] | ≥ 80 | 10 to 100 | 100 to 500 |
| CCn1nc(-c2cnc3cc(OC)c(S(=O)(=O)C(C)(C)C)cn23)cc1C(=O)N[C@H](C)c1ccccn1 [Example 95, (R)-3-(6-(tert-butylsulfonyl)-7-methoxyimidazo[1,2-a]pyridin-3-yl)-1-ethyl-N-(1-(pyridin-2-yl)ethyl)-1H-pyrazole-5-carboxamide] | ≥ 80 | < 10 | < 100 |
| CCn1nc(-c2cnc3cc(OC)c(S(=O)(=O)C(C)(C)C)cn23)cc1C(=O)N[C@H](C)c1ncccn1 [Example 96, (R)-3-(6-(tert-butylsulfonyl)-7-methoxyimidazo[1,2-a]pyridin-3-yl)-1-ethyl-N-(1-(pyrimidin-2-yl)ethyl)-1H-pyrazole-5-carboxamide] | ≥ 80 | < 10 | < 100 |
| CCn1nc(-c2cnc3cc(OC)c(S(=O)(=O)C(C)(C)C)cn23)cc1C(=O)N[C@H](C)c1ncccc1F [Example 97, (R)-3-(6-(tert-butylsulfonyl)-7-methoxyimidazo[1,2-a]pyridin-3-yl)-1-ethyl-N-(1-(3-fluoropyridin-2-yl)ethyl)-1H-pyrazole-5-carboxamide] | ≥ 80 | < 10 | < 100 |
| CCn1nc(-c2cnc3cc(OC)c(S(=O)(=O)C(C)(C)C)cn23)cc1C(=O)N[C@H](C)c1nccs1 [Example 98, (R)-3-(6-(tert-butylsulfonyl)-7-methoxyimidazo[1,2-a]pyridin-3-yl)-1-ethyl-N-(1-(thiazol-2-yl)ethyl)-1H-pyrazole-5-carboxamide] | ≥ 80 | < 10 | < 100 |
| COc1cc2ncc(-c3cc(C(=O)N[C@H](C)c4ccccn4)n(C4CC4)n3)n2cc1S(=O)(=O)C(C)(C)C [Example 99, (R)-3-(6-(tert-butylsulfonyl)-7-methoxyimidazo[1,2-a]pyridin-3-yl)-1-cyclopropyl-N-(1-(pyridin-2-yl)ethyl)-1H-pyrazole-5-carboxamide] | ≥ 80 | < 10 | < 100 |
